These results are taken from patent US20240247080A1, “GLP1/GIP/NPY2 RECEPTOR TRIPLE AGONISTS” (Boehringer Ingelheim International GmbH, priority 2022, published 2024).

Like-named read-outs stand apart in the source and are kept apart here. Starred links: 1 amine or outer side, 2 acyl side, 3 side chain; linkers in the order of their positions; H or OH if unused. Non-standard residues stand in square brackets, D forms with d. Groups on a side chain read outwards from the residue. *: point of attachment. C20 diacid = O=C(O)CCCCCCCCCCCCCCCCCCC(=O)*; C18 diacid = O=C(O)CCCCCCCCCCCCCCCCC(=O)*; γGlu = O=C(O)[C@H](CCC(=O)[*:2])N[*:1]; εLys = N[C@@H](CCCCN[*:1])C(=O)[*:2]; NMeR = CN[C@@H](CCCNC(=N)N)C(=O)O; β3hQ = NC(=O)CC[C@H](N)CC(=O)O; Aib = CC(C)(N)C(=O)O

Holding throughout (format): cell-based
Details in all cases: CreLuc reporter gene assay
(A reporter such as luciferase makes a cellular process visible.)

In assay [1] the target is T1, hGIPR (Homo sapiens, UniProt P48546).
T1 construct: expressed in transfected cells; host or cells: CHO cells carrying a CRE-luciferase reporter gene
T1 sequence (P48546 22-466): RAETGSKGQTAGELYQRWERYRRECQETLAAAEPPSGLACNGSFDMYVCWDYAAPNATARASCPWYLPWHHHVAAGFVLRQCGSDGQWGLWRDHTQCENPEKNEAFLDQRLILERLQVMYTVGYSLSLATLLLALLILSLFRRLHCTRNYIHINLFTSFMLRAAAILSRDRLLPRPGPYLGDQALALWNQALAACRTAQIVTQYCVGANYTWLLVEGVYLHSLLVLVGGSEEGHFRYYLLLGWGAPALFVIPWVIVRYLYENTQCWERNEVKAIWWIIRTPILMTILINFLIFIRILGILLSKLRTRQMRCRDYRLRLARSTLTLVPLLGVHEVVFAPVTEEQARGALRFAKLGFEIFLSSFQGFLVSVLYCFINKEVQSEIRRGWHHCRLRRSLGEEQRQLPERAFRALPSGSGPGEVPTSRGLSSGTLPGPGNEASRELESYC
Briefly: hGIPR CreLuc reporter gene assay in 0.5% and 100% plasma. In short, it runs like this:
(§1)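 HEK-293 cells co-expressing GLP-1 or NPY2 receptor and CHO cells expressing GIP receptor, each carrying a CRE-driven luciferase reporter, were stimulated with peptides for 4 hours at 37 °C. Luminescence was read after Bright-Glo addition. EC50 came from 8-point, four-decade curves fitted by variable-slope non-linear regression.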

Assay [2] concerns the target T2, hNPY2R (Homo sapiens, UniProt P49146).
T2 construct: expressed in transfected cells; host or cells: HEK-293 cells carrying a CRE-luciferase reporter gene
T2 sequence (P49146 1-381): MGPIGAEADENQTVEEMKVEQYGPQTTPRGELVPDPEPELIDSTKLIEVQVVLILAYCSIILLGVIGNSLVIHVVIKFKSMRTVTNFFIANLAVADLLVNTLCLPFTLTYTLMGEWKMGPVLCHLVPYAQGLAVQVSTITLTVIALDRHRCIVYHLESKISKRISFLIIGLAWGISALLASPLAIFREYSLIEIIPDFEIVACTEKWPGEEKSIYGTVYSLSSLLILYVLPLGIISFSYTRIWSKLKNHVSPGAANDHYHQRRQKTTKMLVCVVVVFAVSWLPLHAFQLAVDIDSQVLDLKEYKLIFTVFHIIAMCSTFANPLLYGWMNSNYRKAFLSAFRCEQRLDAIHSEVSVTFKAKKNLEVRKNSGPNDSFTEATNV
Kind of assay: hNPY2R CreLuc reporter gene assay in 0.5% and 100% plasma. In short, it runs like this: as §1

Assay [3] has as its target T3, hGLP1R (Homo sapiens, UniProt P43220).
T3 construct: expressed in transfected cells; host or cells: HEK-293 cells carrying a CRE-luciferase reporter gene
Kind of assay: hGLP1R CreLuc reporter gene assay in 0.5% and 100% plasma. The method in brief:
as §1

Setting [4] is: 0.5% human plasma, read-out: hGIPR 0.5% hP.
[5] abbreviates: 0.5% human plasma, read-out: hNPY2R 0.5% hP.
Where [6] appears, read: 0.5% human plasma, read-out: hGLP1R 0.5% hP.
Setting [7] is: 100% human plasma, read-out: hGIPR 100% hP.
The mark [8] stands for this setting: 100% human plasma, read-out: hGLP1R 100% hP.
Where [9] appears, read: 100% human plasma, read-out: hNPY2R 100% hP.

T3 sequence (P43220 24-463): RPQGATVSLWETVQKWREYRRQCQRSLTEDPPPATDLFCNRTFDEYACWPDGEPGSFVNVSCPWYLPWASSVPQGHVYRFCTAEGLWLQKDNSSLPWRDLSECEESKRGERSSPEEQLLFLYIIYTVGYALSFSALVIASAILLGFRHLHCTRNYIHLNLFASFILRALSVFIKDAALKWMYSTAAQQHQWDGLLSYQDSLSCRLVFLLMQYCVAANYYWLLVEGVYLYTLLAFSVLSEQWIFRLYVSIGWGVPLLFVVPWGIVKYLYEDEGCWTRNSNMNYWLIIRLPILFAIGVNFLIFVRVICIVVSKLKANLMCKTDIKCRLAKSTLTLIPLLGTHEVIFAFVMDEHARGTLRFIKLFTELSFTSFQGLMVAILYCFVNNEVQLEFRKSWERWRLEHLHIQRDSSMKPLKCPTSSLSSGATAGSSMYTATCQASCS

On to “H-Y[Aib]EGTFTSDYSI[Aib]LEKQAQ[Aib]AFVEWLIK([γGlu-γGlu-γGlu-γGlu-γGlu-C18 diacid])GGPSEGASLRHYYNWLTRQRY-NH2 [Compound 292, Y-Aib-E-G-T-F-T-S-D-Y-S-I-Aib-L-E-K-Q-A-Q-Aib-A-F-V-E-W-L-I-K(1,3)-GGPSEGASLRHYYNWLTRQRY-NH2.C18DA-gGlu-gGlu-gGlu-gGlu-gGlu(1,2)]”, for which the results for the EC50 in assay [1] (setting [4]), in assay [2] (setting [5]) and in assay [3] (setting [6]) were 0.16 nM, 19.9 nM and 0.13 nM, respectively.

“H-Y[Aib]EGTFTSDYSI[Aib]LEKQAQ[Aib]AFVEWLIK([γGlu-γGlu-γGlu-γGlu-γGlu-C18 diacid])GGPSSGASLRHYYNWLTRQRY-NH2 [Compound 253, Y-Aib-E-G-T-F-T-S-D-Y-S-I-Aib-L-E-K-Q-A-Q-Aib-A-F-V-E-W-L-I-K(1,3)-GGPSSGASLRHYYNWLTRQRY-NH2.C18DA-gGlu-gGlu-gGlu-gGlu-gGlu(1,2)]”: the EC50 turned out to be 0.24 nM in assay [1] (setting [4]); 0.64 nM in assay [1] (setting [7]); 13.4 nM in assay [2] (setting [5]); 0.08 nM in assay [3] (setting [6]); 0.74 nM in assay [3] (setting [8]).

Regarding “H-Y[Aib]EGTFTSDYSI[Aib]LEKQAQ[Aib]AFVEWLIK([γGlu-γGlu-γGlu-γGlu-γGlu-C18 diacid])GGPSSPASLRHYYNWLTRQRY-NH2 [Compound 180, Y-Aib-E-G-T-F-T-S-D-Y-S-I-Aib-L-E-K-Q-A-Q-Aib-A-F-V-E-W-L-I-K(1,3)-GGPSSPASLRHYYNWLTRQRY-NH2.C18DA-gGlu-gGlu-gGlu-gGlu-gGlu(1,2)]”, the results for the EC50 in assay [1] (setting [4]), in assay [2] (setting [9]) and in assay [3] (setting [6]) were 0.2 nM, 107 nM and 0.1 nM, respectively.

For “H-Y[Aib]EGTFTSDYSI[Aib]LEKQAQ[Aib]AFVEWLIK([γGlu-γGlu-γGlu-γGlu-γGlu-C20 diacid])GGPSEGASLRHYYNWLTRQRY-NH2 [Compound 289, Y-Aib-E-G-T-F-T-S-D-Y-S-I-Aib-L-E-K-Q-A-Q-Aib-A-F-V-E-W-L-I-K(1,3)-GGPSEGASLRHYYNWLTRQRY-NH2.C20DA-gGlu-gGlu-gGlu-gGlu-gGlu(1,2)]”, the EC50 in assay [1] (setting [4]) amounted to 0.7 nM; in assay [1] (setting [7]), 1.75 nM; in assay [2] (setting [5]) it was 11.1 nM; in assay [2] (setting [9]), 56.3 nM; in assay [3] (setting [6]) it was 0.14 nM.

Turning to “H-Y[Aib]EGTFTSDYSI[Aib]LEKQAQ[Aib]AFVEWLIK([γGlu-γGlu-γGlu-γGlu-γGlu-γGlu-C20 diacid])GGGSEYVSLRHYYNWLTRQRY-NH2 [Compound 65, Y-Aib-E-G-T-F-T-S-D-Y-S-I-Aib-L-E-K-Q-A-Q-Aib-A-F-V-E-W-L-I-K(1,3)-GGGSEYVSLRHYYNWLTRQRY-NH2.C20DA-gGlu-gGlu-gGlu-gGlu-gGlu-gGlu(1,2)]”, the EC50 in assay [1] (setting [4]) came to 1.03 nM; in assay [2] (setting [5]) it was 11 nM; in assay [3] (setting [6]), 2.65 nM.

On to “H-Y[Aib]EGTFTSDYSI[Aib]LEKQAQ[Aib]AFVEWLIK([γGlu-γGlu-γGlu-γGlu-γGlu-γGlu-C20 diacid])GGPSEGASLRHYYNWLTRQRY-NH2 [Compound 305, Y-Aib-E-G-T-F-T-S-D-Y-S-I-Aib-L-E-K-Q-A-Q-Aib-A-F-V-E-W-L-I-K(1,3)-GGPSEGASLRHYYNWLTRQRY-NH2.C20DA-gGlu-gGlu-gGlu-gGlu-gGlu-gGlu(1,2)]”, for which the EC50 in assay [1] (setting [4]) stood at 0.65 nM; in assay [1] (setting [7]), 2.81 nM; in assay [2] (setting [5]), 18.3 nM; in assay [3] (setting [6]), 0.29 nM.

“H-Y[Aib]EGTFTSDYSI[Aib]LEKQAQ[Aib]AFVEWLIK([εLys-γGlu-γGlu-γGlu-γGlu-γGlu-C18 diacid])GGPESGASLRHYYNWLTRQRY-NH2 [Compound 152, Y-Aib-E-G-T-F-T-S-D-Y-S-I-Aib-L-E-K-Q-A-Q-Aib-A-F-V-E-W-L-I-K(1,3)-GGPESGASLRHYYNWLTRQRY-NH2.C18DA-gGlu-gGlu-gGlu-gGlu-gGlu-eLys(1,2)]”: the EC50 in assay [1] (setting [4]) was 0.4 nM; in assay [1] (setting [7]) it was 0.96 nM; in assay [2] (setting [5]), 12.6 nM; in assay [3] (setting [6]), 0.13 nM; in assay [3] (setting [8]) it was 4.24 nM.

Consider “H-Y[Aib]EGTFTSDYSI[Aib]LEKQAQ[Aib]AFVEWLIK([εLys-γGlu-γGlu-γGlu-γGlu-γGlu-C18 diacid])GGPSEPASLRHYYNWLTRQRY-NH2 [Compound 263, Y-Aib-E-G-T-F-T-S-D-Y-S-I-Aib-L-E-K-Q-A-Q-Aib-A-F-V-E-W-L-I-K(1,3)-GGPSEPASLRHYYNWLTRQRY-NH2.C18DA-gGlu-gGlu-gGlu-gGlu-gGlu-eLys(1,2)]”, for which the EC50 in assay [1] (setting [4]) is 0.12 nM; in assay [1] (setting [7]) it was 1.5 nM; in assay [2] (setting [5]) it was 15.8 nM; in assay [3] (setting [6]), 0.32 nM.

In the case of “H-Y[Aib]EGTFTSDYSI[Aib]LEKQAQ[Aib]AFVEWLIK([εLys-γGlu-γGlu-γGlu-γGlu-γGlu-C20 diacid])GGPEEGASLRHYYNWLTRQRY-NH2 [Compound 230, Y-Aib-E-G-T-F-T-S-D-Y-S-I-Aib-L-E-K-Q-A-Q-Aib-A-F-V-E-W-L-I-K(1,3)-GGPEEGASLRHYYNWLTRQRY-NH2.C20DA-gGlu-gGlu-gGlu-gGlu-gGlu-eLys(1,2)]”, the EC50 in assay [1] (setting [4]) turned out to be 0.28 nM; in assay [1] (setting [7]), 1.43 nM; in assay [2] (setting [5]), 15.4 nM; in assay [3] (setting [6]), 0.29 nM.

In the case of “H-Y[Aib]EGTFTSDYSI[Aib]LEKQAQ[Aib]AFVEWLIK([εLys-γGlu-γGlu-γGlu-γGlu-γGlu-γGlu-C20 diacid])GGPSEGASLRHYYNWLTRQ[NMeR]Y-NH2 [Compound 236, Y-Aib-E-G-T-F-T-S-D-Y-S-I-Aib-L-E-K-Q-A-Q-Aib-A-F-V-E-W-L-I-K(1,3)-G-G-P-S-E-G-A-S-L-R-H-Y-Y-N-W-L-T-R-Q-NMeR-Y-NH2.C20DA-gGlu-gGlu-gGlu-gGlu-gGlu-gGlu-eLys(1,2)]”, the EC50 in assay [1] (setting [4]) was found to be 0.3 nM; in assay [2] (setting [5]) it was 31 nM; in assay [3] (setting [6]), 0.26 nM.

Turning to “H-Y[Aib]EGTFTSDYSI[Aib]LEKQAQ[Aib]AFVEWLIK([εLys-γGlu-γGlu-γGlu-γGlu-γGlu-γGlu-C20 diacid])GGPSEGASLRHYYNWLTR[β3hQ]RY-NH2 [Compound 277, Y-Aib-E-G-T-F-T-S-D-Y-S-I-Aib-L-E-K-Q-A-Q-Aib-A-F-V-E-W-L-I-K(1,3)-G-G-P-S-E-G-A-S-L-R-H-Y-Y-N-W-L-T-R-bHGln-R-Y-NH2.C20DA-gGlu-gGlu-gGlu-gGlu-gGlu-gGlu-eLys(1,2)]”, the EC50 is 0.11 nM in assay [1] (setting [4]), 0.68 nM in assay [1] (setting [7]), over 99.9 nM in assay [2] (setting [5]) and 0.19 nM in assay [3] (setting [6]).

Regarding “H-Y[Aib]EGTFTSDYSI[Aib]LEKQAQ[Aib]AFVEWLIK([εLys-γGlu-γGlu-γGlu-γGlu-γGlu-γGlu-C20 diacid])GGPSEGQSIRHYYNWLTRQRY-NH2 [Compound 134, Y-Aib-E-G-T-F-T-S-D-Y-S-I-Aib-L-E-K-Q-A-Q-Aib-A-F-V-E-W-L-I-K(1,3)-GGPSEGQSIRHYYNWLTRQRY-NH2.C20DA-gGlu-gGlu-gGlu-gGlu-gGlu-gGlu-eLys(1,2)]”, the EC50 in assay [1] (setting [4]) turned out to be 0.09 nM; in assay [1] (setting [7]), 0.83 nM; in assay [2] (setting [5]), 10.1 nM; in assay [2] (setting [9]), 39.9 nM; in assay [3] (setting [6]), 0.1 nM.
